Earlier results, collected in patent US12462914B2, “Systems and methods for dispensing a statin medication over the counter” (ASTRAZENECA UK LIMITED, priority 2016, dated 2025).

Settings: co-administration of warfarin with a single oral dose of atorvastatin

effect on the pharmacokinetics of atorvastatin: no significant effect
Structure (SMILES): CC(C)c1c(C(=O)Nc2ccccc2)c(-c2ccccc2)c(-c2ccc(F)cc2)n1CC[C@@H](O)C[C@@H](O)CC(=O)O [atorvastatin]
